# Patent US20160264570A1, “METHOD OF BLOCKING TRANSMISSION OF MALARIAL PARASITE” (THE UNITED STATES OF AMERICA, AS REPRESENTED BY THE …, priority 2013, published 2016)
# Where two headings read alike, the source gives them in different places. Starred links: 1 amine or outer side, 2 acyl side, 3 side chain; linkers in the order of their positions; H or OH if unused. Positions of bridges follow the written chain, without caps; N, C: chain ends. Non-standard residues stand in square brackets, D forms with d. Residues, ends and D or L forms follow the SMILES beside them. Chains are numbered I, II in the order given. Actinocin(9to1) = Cc1c2oc3c(C)ccc(C(=O)[*:1])c3nc-2c(C(=O)[*:2])c(N)c1=O; NMeV = CN[C@H](C(=O)O)C(C)C; Sar = CNCC(=O)O
# How the values were obtained:
# [1] = system: HepG2 cells; assay: Cytotoxicity in mammalian HepG2 cell line; details: for % Max response: HepG2; for Emax: HepG2, read-out: % Max response
# [2] = system: P. falciparum strain 3D7 gametocytes; assay: alamarBlue gametocyte viability assay, strain 3D7
# [3] = system: P. falciparum strain HB3 gametocytes; assay: alamarBlue gametocyte viability assay, strain HB3; details: for fold more potent against HB3 compared to 3D7: gametocytes
# [4] = system: P. falciparum strain Dd2 gametocytes; assay: alamarBlue gametocyte viability assay, strain Dd2
# [5] = system: Asexual parasites of P. falciparum strain 3D7; assay: SYBR Green viability assay on asexual parasites; format: cell-based, Plasmodium falciparum; details: read-out: IC50 in viability assay using asexual parasites
# [6] = system: Plasmodium berghei ANKA; assay: Malaria mouse model of gametocyte transmission to mosquitoes (oocyst count); format: in vivo; details: mice, Anopheles stephensi
# [7] = system: Dd2 asexual parasites; details: compared to 3D7; ref [27]; cited from earlier work
# [8] = Table 2, Inactive = no significant activity at highest tested concentration (46 μM)
# [9] = Table 4, Inactive = no significant activity at highest tested concentration (46 μM)
# [10] = read-out: 3D7-IC50, Table 3, 11 concentrations, 1:3 dilution, three times
# [11] = read-out: Gametocyte IC50, mean of at least 3 independent experiments, P. falciparum 3D7 gametocyte
# [12] = read-out: HB3-IC50, Table 3, 11 concentrations, 1:3 dilution, three times
# [13] = read-out: Dd2-IC50, Table 3, 11 concentrations, 1:3 dilution, three times
# [14] = read-out: IC50 (μM) in HepG2, Table 2, Inactive = no significant activity at highest tested concentration (46 μM)
# [15] = read-out: IC50 (μM) in HepG2 cells, Table 4, Inactive = no significant activity at highest tested concentration (46 μM)
# [16] = Homo sapiens, HepG2, read-out: IC50 (μM) in HepG2 cells
# [17] = Plasmodium falciparum, 3D7, read-out: 3D7-IC50
# [18] = Plasmodium falciparum, HB3, read-out: HB3-IC50
# [19] = Plasmodium falciparum, DD2, read-out: Dd2-IC50
# [20] = Plasmodium falciparum, 3D7, read-out: Gametocyte IC50
# [21] = Plasmodium falciparum, DD2, read-out: IC50 against Dd2 gametocytes
# [22] = Plasmodium falciparum, HB3, read-out: IC50 against HB3 gametocytes
# [23] = Homo sapiens, HepG2, read-out: IC50 (μM) in HepG2
# [24] = Plasmodium falciparum, HB3, read-out: HB3-IC50, Table 3, 11 concentrations, 1:3 dilution, three times
"IC50 [2, 10]","IC50 [2, 11]",Molecule,% Max response ([1]; Table 2),% Max response ([1]; Table 4),"IC50 [3, 12]","IC50 [4, 13]",also measured
743 nM,743 nM,CCN(CCO)CCCOc1ccc2c(Nc3cc(CC(=O)Nc4cccc(F)c4)[nH]n3)ncnc2c1 [AZD-1152-HQPA],11%,11%,1480 nM,1480 nM,"IC50 (μM) in HepG2 [1, 8]: Inactive; IC50 (μM) in HepG2 cells [1, 9]: Inactive"
743 nM,743 nM,CC1(C)OC2=C(C(=O)c3ccccc3C2=O)[C@H](NCc2ccccc2)[C@@H]1O [CAY10581],−86%,−86%,662 nM,2350 nM,"IC50 [1, 14]: 17.1 µM; IC50 [1, 15]: 17.1 µM"
–,–,C#Cc1cccc(Nc2ncnc3cc(OC)c(OCCCCCCC(=O)NO)cc23)c1 [CUDC-101],–,−76%,–,–,"IC50 [1, 16]: 6.79 µM; IC50 [2, 17]: 800 nM; IC50 [3, 18]: 152 nM; fold more potent against HB3 compared to 3D7 [3]: 5.5 fold"
–,–,CCN(CC)CCCC(C)Nc1ccnc2cc(Cl)ccc12 (stereo not drawn) [Chloroquine diphosphate],–,–,–,–,"IC50 [2, 17]: 200 nM; IC50 [3, 18]: 935 nM; IC50 [4, 19]: 935 nM"
469 nM,–,Cc1cc(NC2CCCCC2)nc(-n2nc(C)cc2C)n1 [CyPPA],–,–,743 nM,590 nM,–
–,–,"Cc1c2oc3c(C)ccc(C(=O)N[C@@H]4C(=O)N[C@H](C(C)C)C(=O)N5CCC[C@H]5C(=O)N(C)CC(=O)N(C)[C@@H](C(C)C)C(=O)O[C@@H]4C)c3nc-2c(C(=O)N[C@@H]2C(=O)N[C@H](C(C)C)C(=O)N3CCC[C@H]3C(=O)N(C)CC(=O)N(C)[C@@H](C(C)C)C(=O)O[C@@H]2C)c(N)c1=O [Dactinomycin] (I: T[dV]P[Sar][NMeV] / II: T[dV]P[Sar][NMeV]; ester I:1-I:C, II:1-II:C; linker I:N-II:N via Actinocin(9to1))",–,–,–,–,"Emax ([1]; Homo sapiens): 1%; IC50 (μM) in HepG2 [1, 8]: Inactive; IC50 (μM) in HepG2 cells [1, 9]: Inactive; IC50 [2, 20]: 15 nM; IC50 [3, 18]: 19 nM; IC50 [4, 19]: 33 nM"
935 nM,935 nM,COc1ncc(-c2ccc3nccc(-c4ccnnc4)c3c2)cc1NS(=O)(=O)c1ccc(F)cc1F [GSK-458],33%,33%,332 nM,1480 nM,"IC50 (μM) in HepG2 [1, 8]: Inactive; IC50 (μM) in HepG2 cells [1, 9]: Inactive"
–,–,CN(C)c1ccc2nc3ccc(=[N+](C)C)cc-3sc2c1 [Methylene blue],–,−20%,–,–,"IC50 (μM) in HepG2 cells [1, 9]: Inactive; IC50 [2, 17]: 300 nM; IC50 [3, 18]: 935 nM; IC50 ([4]; Plasmodium falciparum, DD2, read-out: Dd2-IC50, Table 3, 11 concentrations, 1:3 dilution, three times): 526 nM; IC50 [4, 21]: 526 nM"
–,–,Cc1[nH]c2ccccc2c1CCNCc1ccc(/C=C/C(=O)NO)cc1 [Panobinostat],–,−74%,–,–,"IC50 [1, 16]: 0.372 µM; IC50 [2, 17]: 900 nM; IC50 [3, 22]: 118 nM; fold more potent against HB3 compared to 3D7 [3]: 7.9 fold; IC50 [4, 21]: 148 nM; times more potent against Dd2 compared to 3D7 ([4]; gametocytes): 6.3 times"
–,–,COc1cc(NC(C)CCCN)c2ncccc2c1 (stereo not drawn) [Primaquine diphosphate],–,–,–,–,"IC50 [3, 18]: 679 nM; IC50 [4, 19]: 1080 nM"
–,–,"COc1cc(NC(C)CCCN)c2ncccc2c1 (stereo not drawn) [Primaquine, primaquine]",–,–,–,–,"IC50 [1, 16]: 17.8 µM; IC50 [3, 22]: 680 nM; IC50 [4, 21]: 1080 nM"
300 nM,345 nM,C=CC1CN2CCC1CC2C(O)c1ccnc2ccc(OC)cc12.C=CC1CN2CCC1CC2C(O)c1ccnc2ccc(OC)cc12.O=S(=O)(O)O (stereo not drawn) [Quinine hemisulfate],2%,2%,235 nM,83 nM,"IC50 (μM) in HepG2 [1, 8]: Inactive; IC50 (μM) in HepG2 cells [1, 9]: Inactive"
–,–,C/C=C1\NC(=O)[C@H]2CSSCC/C=C/[C@H](CC(=O)N[C@H](C(C)C)C(=O)N2)OC(=O)[C@H](C(C)C)NC1=O [Romidepsin],–,–,–,–,"Emax ([1]; Homo sapiens): -98%; IC50 [1, 23]: 0.074 µM; IC50 [1, 16]: 0.074 µM; IC50 [2, 17]: 200 nM; IC50 [2, 20]: 637 nM; IC50 [3, 24]: 148 nM"
935 nM,–,Cl.Cl.Cl.Cl.Cl.Cl.N.N.N.N.N.N.N.N.N.N.N.N.N.N.[O-2].[O-2].[Ru+3].[Ru+3].[Ru+4] [Ruthenium red],–,–,264 nM,526 nM,–
–,–,CC[C@@H](C(=O)[C@@H](C)[C@@H](O)[C@H](C)[C@@H]1O[C@@H]([C@@H](CC)C(=O)O)CC[C@@H]1C)[C@H]1O[C@]2(C=C[C@@H](O)[C@]3(CC[C@@](C)([C@H]4CC[C@](O)(CC)[C@H](C)O4)O3)O2)[C@H](C)C[C@@H]1C [Salinomycin sodium],–,–,–,–,"Emax ([1]; Homo sapiens): -69%; IC50 [1, 23]: 29.6 µM; IC50 [1, 16]: 29.6 µM; IC50 [2, 17]: 100 nM; IC50 [2, 20]: 194 nM; IC50 [3, 24]: 372 nM"
–,–,CCN(CC)C(=S)SSC(=S)N(CC)CC [Tetraethylthiuram disulfide],–,–,–,–,"IC50 [3, 18]: 148 nM; IC50 [4, 19]: 296 nM"
300 nM,372 nM,CC1=C(CO)C(=O)O[C@@H]([C@@H](C)[C@H]2CC[C@H]3[C@@H]4C[C@H]5O[C@]56[C@@H](O)C=CC(=O)[C@]6(C)[C@H]4CC[C@]23C)C1 [Withaferin A],−80%,−80%,1330 nM,372 nM,"IC50 [1, 14]: 9.35 µM; IC50 [1, 15]: 9.35 µM"
–,–,CCN(CC)CCCC(C)Nc1ccnc2cc(Cl)ccc12 (stereo not drawn) [chloroquine],–,–,–,–,fold less potent against Dd2 asexual parasites [7]: 10 fold; reduction of potency against Dd2 gametocytes compared to 3D7 [4]: 3.7 fold

Molecule,"IC50 [2, 10]","IC50 [2, 11]",% Max response ([1]; Table 2),% Max response ([1]; Table 4),"IC50 [3, 12]","IC50 [4, 13]",also measured
CC(=O)OC[C@H]1O[C@@H]([S-])[C@H](OC(C)=O)[C@@H](OC(C)=O)[C@@H]1OC(C)=O.CCP(CC)CC.[Au+] [Auranofin],935 nM,935 nM,−98%,−98%,1050 nM,1180 nM,"IC50 [1, 14]: 9.35 µM; IC50 [1, 15]: 9.35 µM"
S=C(SSC(=S)N1CCCCC1)N1CCCCC1 [Dicyclopentamethylenethiuram],200 nM,–,–,–,743 nM,743 nM,–
CC[C@@H](C(=O)[C@@H](C)[C@@H](O)[C@H](C)[C@@H]1O[C@@H]([C@@H](CC)C(=O)O)CC[C@@H]1C)[C@H]1O[C@]2(C=C[C@@H](O)[C@]3(CC[C@@](C)([C@H]4CC[C@](O)(CC)[C@H](C)O4)O3)O2)[C@H](C)C[C@@H]1C [Salinomycin monosodium],100 nM,–,–,–,469 nM,296 nM,–
Nc1ccc(-c2ccc3ncc4ccc(=O)n(-c5cccc(C(F)(F)F)c5)c4c3c2)cn1 [Torin 2],–,8 nM,−46%,−46%,15 nM,12 nM,"IC50 [5]: 2.75 nM; oocyst production in mosquitoes ([6]; single 4 mg/kg dose i.v.): almost completely eliminated; oocyst production in mosquitoes ([6]; single dose of 2 mg/kg i.v.): significantly reduced; oocyst production in mosquitoes ([6]; two 4 mg/kg doses i.v.): completely blocked; cytotoxicity in HepG2 cells ([1]; at the highest tested concentration (46 μM)): partial cytotoxicity; IC50 [1, 14]: 9.35 µM; IC50 [1, 15]: 9.35 µM"
CCC(=O)N1CCN(c2ccc(-n3c(=O)ccc4cnc5ccc(-c6cnc7ccccc7c6)cc5c43)cc2C(F)(F)F)CC1 [Torin-1],6620 nM,–,–,–,3720 nM,5260 nM,–
Monensin sodium,200 nM,254 nM,40%,40%,264 nM,372 nM,IC50 (μM) in HepG2 [1]: Inactive; IC50 (μM) in HepG2 cells [1]: Inactive
Zinc pyrithione,–,93 nM,−99%,−99%,59 nM,59 nM,"IC50 [1, 14]: 2.15 µM; IC50 [1, 15]: 2.15 µM"
